Reference: US20170190705A1, “Compositions and Methods for Inhibiting BMP” (THE BRIGHAM AND WOMAN'S HOSPITAL, INC., priority 2014, published 2017)
Read-outs that look alike come from different tables or passages of the source.

Key:
CDK5/p35 = CDK5/p35 (Homo sapiens, UniProt Q00535); assay: Kinome profiling CDK5/p35; type: biochemical; conditions: read-out: Inhibitory activity CDK5/p35; for inhibition at 0.1 µM: 100 nM
Procedure: (§1) . The kinome-wide selectivity was determined following the methods previously reported by Mohedas et al., ACS Chem Biol 2013, 8, 1291-1302 and Sanvitale et al., PLoS One 2013, 8, e62721.

ROCK2 = ROCK2 (Homo sapiens, UniProt O75116); assay: Kinome profiling ROCK2; type: biochemical; conditions: read-out: Inhibitory activity ROCK2; for inhibition at 0.1 µM: 100 nM
Procedure: as §1

MARK4 = molecular target: T1, MARK4 (Homo sapiens, UniProt Q96L34); assay: Kinome profiling MARK4; type: biochemical; conditions: read-out: Inhibitory activity MARK4; for inhibition at 0.1 µM: 100 nM
T1 sequence (Q96L34 1-752): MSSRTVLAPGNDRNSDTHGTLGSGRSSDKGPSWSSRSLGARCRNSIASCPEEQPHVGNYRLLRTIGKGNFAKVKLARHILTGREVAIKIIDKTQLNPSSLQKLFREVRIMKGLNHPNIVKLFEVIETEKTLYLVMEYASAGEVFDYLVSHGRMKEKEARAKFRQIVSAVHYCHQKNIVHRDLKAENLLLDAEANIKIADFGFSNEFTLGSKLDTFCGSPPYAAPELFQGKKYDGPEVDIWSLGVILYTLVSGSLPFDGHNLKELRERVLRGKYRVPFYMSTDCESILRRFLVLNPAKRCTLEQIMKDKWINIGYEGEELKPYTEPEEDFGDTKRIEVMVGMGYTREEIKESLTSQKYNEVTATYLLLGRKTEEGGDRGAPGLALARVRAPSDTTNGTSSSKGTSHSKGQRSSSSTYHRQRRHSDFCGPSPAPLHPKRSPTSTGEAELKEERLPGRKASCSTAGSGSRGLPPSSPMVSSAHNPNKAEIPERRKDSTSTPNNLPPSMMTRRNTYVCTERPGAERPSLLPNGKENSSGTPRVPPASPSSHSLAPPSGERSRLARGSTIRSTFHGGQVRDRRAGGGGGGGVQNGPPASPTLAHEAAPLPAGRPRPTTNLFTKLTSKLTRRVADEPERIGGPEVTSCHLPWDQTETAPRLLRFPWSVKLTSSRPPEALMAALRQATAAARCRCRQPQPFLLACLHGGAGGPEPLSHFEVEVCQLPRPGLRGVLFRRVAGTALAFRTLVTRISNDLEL
Procedure: as §1

MAP4K4 = MAP4K4 (Homo sapiens, UniProt O95819); assay: Kinome profiling MAP4K4; type: biochemical; conditions: for inhibition at 0.1 µM: 100 nM
Sequence of MAP4K4 (O95819 whole entry): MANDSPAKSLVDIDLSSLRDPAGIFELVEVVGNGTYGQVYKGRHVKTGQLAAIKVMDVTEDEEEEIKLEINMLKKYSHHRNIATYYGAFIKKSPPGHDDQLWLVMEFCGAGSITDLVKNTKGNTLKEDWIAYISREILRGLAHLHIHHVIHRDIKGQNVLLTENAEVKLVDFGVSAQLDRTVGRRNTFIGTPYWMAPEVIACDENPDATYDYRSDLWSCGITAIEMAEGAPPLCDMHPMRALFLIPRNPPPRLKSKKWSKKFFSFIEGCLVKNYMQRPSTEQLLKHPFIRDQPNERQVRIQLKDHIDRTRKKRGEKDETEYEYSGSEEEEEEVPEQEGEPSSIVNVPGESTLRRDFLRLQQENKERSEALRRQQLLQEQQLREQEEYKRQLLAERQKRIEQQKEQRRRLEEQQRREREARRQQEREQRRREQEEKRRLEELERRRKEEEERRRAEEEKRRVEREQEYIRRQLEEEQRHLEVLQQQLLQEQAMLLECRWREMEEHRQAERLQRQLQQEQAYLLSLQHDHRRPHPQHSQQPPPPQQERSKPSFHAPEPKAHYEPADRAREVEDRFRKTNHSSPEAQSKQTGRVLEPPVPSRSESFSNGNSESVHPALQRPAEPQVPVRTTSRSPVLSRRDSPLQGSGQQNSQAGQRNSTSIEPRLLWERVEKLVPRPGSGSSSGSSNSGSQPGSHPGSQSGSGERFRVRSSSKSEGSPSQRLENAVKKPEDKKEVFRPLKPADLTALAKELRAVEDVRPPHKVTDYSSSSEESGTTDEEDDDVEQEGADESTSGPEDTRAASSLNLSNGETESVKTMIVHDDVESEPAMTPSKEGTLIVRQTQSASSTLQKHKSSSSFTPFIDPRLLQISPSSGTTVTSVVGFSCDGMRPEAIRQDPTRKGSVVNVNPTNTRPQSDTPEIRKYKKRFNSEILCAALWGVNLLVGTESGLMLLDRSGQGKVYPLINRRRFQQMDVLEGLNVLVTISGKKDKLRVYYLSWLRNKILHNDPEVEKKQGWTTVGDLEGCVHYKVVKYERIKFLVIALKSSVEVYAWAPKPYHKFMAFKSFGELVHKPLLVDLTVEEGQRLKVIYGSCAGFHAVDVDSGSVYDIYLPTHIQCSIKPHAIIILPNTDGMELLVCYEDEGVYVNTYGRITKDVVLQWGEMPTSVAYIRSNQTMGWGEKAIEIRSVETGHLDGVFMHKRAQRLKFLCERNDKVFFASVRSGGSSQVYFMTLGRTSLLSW
Procedure: as §1

MAPKAPK2 = MAPKAPK2 (Homo sapiens, UniProt P49137); assay: Kinome profiling MAPKAPK2; type: biochemical; conditions: read-out: Inhibitory activity MAPKAPK2; for inhibition at 0.1 µM: 100 nM
Sequence of MAPKAPK2 (P49137 whole entry): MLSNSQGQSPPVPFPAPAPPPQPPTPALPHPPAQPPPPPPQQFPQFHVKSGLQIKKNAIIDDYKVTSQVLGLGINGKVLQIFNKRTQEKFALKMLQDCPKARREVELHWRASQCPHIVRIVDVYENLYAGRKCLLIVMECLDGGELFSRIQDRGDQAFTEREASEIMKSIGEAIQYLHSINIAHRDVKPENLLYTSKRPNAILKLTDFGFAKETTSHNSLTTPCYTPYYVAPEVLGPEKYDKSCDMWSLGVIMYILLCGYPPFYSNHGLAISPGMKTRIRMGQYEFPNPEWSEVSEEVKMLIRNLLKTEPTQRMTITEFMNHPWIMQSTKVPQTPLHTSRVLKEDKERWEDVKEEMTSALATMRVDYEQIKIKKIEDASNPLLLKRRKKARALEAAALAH
Procedure: as §1

TNK2 = TNK2 (Homo sapiens, UniProt Q07912); assay: Kinome profiling TNK2; type: biochemical; conditions: read-out: Inhibitory activity TNK2; for inhibition at 0.1 µM: 100 nM
Sequence of TNK2 (Q07912 whole entry): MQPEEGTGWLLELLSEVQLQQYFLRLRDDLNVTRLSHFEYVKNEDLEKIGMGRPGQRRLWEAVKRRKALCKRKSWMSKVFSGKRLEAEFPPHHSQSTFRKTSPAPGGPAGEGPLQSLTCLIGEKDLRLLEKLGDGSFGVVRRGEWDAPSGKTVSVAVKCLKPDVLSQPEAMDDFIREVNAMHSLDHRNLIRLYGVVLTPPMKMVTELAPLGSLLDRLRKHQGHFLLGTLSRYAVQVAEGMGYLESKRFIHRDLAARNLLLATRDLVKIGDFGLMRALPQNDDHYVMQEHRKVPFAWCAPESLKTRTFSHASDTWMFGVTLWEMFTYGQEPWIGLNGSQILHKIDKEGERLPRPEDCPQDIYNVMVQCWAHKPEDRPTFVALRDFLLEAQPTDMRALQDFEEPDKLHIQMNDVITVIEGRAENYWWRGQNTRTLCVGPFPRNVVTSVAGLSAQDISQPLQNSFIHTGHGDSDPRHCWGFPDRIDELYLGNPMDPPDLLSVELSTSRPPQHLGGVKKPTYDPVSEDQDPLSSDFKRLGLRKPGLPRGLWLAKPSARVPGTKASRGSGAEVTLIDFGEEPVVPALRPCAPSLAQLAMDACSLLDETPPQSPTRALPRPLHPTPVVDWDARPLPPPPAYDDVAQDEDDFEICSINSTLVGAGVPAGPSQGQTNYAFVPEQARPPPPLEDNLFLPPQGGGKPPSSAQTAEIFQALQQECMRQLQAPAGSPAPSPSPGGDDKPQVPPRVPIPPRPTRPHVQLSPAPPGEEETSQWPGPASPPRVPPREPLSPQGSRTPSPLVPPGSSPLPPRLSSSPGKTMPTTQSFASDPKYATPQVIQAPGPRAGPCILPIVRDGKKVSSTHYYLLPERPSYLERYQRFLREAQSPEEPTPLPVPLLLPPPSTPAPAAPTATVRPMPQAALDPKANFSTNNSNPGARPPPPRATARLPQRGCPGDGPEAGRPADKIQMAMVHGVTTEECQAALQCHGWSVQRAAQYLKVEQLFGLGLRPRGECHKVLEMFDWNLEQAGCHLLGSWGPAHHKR
Procedure: as §1

EPH-A2 = EPH-A2 (Homo sapiens, UniProt P29317); assay: Kinome profiling EPH-A2; type: biochemical; conditions: read-out: Inhibitory activity EPH-A2; for inhibition at 0.1 µM: 100 nM
Sequence of EPH-A2 (P29317 24-976): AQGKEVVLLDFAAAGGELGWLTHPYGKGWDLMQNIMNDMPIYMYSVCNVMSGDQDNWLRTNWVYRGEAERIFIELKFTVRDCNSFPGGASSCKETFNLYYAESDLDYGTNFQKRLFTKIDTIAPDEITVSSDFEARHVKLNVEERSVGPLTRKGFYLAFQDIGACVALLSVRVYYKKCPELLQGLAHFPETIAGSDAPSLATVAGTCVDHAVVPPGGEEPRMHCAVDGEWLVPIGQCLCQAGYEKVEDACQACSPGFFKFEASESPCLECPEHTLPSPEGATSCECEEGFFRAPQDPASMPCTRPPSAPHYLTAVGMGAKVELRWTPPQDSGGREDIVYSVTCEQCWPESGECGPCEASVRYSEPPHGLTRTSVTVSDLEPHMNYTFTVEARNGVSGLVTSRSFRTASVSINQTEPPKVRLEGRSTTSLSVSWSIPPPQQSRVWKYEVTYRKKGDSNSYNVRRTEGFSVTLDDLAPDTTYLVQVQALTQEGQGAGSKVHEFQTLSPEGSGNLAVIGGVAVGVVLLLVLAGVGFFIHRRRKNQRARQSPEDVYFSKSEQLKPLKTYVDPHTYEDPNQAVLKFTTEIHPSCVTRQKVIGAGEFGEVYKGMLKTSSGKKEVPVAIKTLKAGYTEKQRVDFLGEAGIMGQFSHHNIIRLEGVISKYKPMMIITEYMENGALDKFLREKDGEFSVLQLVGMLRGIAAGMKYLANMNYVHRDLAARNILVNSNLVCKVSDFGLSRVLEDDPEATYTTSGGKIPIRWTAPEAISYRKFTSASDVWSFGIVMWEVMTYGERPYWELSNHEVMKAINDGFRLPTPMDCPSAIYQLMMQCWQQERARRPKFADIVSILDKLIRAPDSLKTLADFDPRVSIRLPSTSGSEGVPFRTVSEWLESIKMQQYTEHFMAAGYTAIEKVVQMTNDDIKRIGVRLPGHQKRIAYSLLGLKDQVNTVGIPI
Procedure: as §1

caALK2 = molecular target: T2, caALK2 (Homo sapiens, UniProt Q04771, Q207D); assay: Luciferase reporter assay constitutively active ALK2; type: cell-based
T2 construct: expressed in transfected cells; host or cells: C2C12 BRE-Luc cells infected with adenovirus (MOI 100)
Procedure: The cells were incubated for 1 h (37° C. and 10% CO2) and allowed to settle and attach. Compounds of interest or DMSO were diluted in DMEM and added at final compound concentrations of 1 nM to 10 μM. Cells were then incubated for 30 min. Adenovirus expressing constitutively active BMP and TGF-β type I receptors (Ad.caALK1-5), generously provided by Dr. Akiko Hata (University of to California at San Francisco), were added to achieve a multiplicity of infection (MOI) of 100. Plates were incubated overnight at 37° C. Cell viability was assayed with an MIT (3-(4,5-dimethylthiazol-2-yl)-2,5-diphenyl tetrazolium bromide) colorimetric assay (Promega) per the manufacturer's instructions. Media was discarded, and firefly luciferase activity was measured (Promega) according to manufacturer's protocol. Light output was measured using a Spectramax L luminometer (Molecular Devices) with an integration time of one second per well. Data was normalized to 100% of incremental BRE-Luc activity due to adenoviruses specifying caALK1, 2, or 3, or the incremental CAGA-Luc activity due to adenoviruses specifying caALK4 or 5.

AKT2 = AKT2 (Homo sapiens, UniProt P31751); assay: Kinome profiling AKT2; type: biochemical; conditions: read-out: Inhibitory activity AKT2; for inhibition at 0.1 µM: 100 nM
Sequence of AKT2 (P31751 whole entry): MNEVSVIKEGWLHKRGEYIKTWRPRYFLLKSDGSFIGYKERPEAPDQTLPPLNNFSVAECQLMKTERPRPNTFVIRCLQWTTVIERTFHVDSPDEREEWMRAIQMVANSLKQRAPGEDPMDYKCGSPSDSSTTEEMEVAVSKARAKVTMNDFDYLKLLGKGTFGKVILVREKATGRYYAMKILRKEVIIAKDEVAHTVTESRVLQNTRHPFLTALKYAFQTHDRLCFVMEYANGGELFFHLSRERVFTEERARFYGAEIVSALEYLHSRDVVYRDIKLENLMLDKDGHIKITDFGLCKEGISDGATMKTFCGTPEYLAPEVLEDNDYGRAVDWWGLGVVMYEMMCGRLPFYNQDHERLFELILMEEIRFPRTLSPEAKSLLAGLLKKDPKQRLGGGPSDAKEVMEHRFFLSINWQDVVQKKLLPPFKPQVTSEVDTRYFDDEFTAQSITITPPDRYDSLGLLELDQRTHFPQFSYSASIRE
Procedure: as §1

ZAP70 = molecular target: T3, ZAP70 (Homo sapiens, UniProt P43403); assay: Kinome profiling ZAP70; type: biochemical; conditions: read-out: Inhibitory activity ZAP70; for inhibition at 0.1 µM: 100 nM
T3 sequence (P43403 1-619): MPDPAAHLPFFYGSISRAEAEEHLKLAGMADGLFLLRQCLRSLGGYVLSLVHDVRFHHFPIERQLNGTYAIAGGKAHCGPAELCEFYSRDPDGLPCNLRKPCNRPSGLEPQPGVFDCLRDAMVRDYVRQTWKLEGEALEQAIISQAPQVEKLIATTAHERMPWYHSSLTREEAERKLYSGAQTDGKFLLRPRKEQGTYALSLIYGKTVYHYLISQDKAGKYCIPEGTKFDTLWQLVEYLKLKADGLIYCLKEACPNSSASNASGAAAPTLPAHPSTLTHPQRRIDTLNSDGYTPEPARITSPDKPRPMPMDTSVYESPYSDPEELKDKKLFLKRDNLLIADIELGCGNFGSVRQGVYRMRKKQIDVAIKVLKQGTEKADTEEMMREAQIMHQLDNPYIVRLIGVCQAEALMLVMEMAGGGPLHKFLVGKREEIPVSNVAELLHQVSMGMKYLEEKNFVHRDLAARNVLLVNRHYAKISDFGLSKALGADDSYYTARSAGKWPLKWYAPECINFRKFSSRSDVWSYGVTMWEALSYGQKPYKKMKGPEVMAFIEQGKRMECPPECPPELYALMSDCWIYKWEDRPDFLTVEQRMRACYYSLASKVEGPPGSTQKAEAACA
Procedure: as §1

[1] = read-out: Inhibitory activity MAP4K4
[2] = Table 4, read-out: Inhibitory Activity MAP4K4

Sequence of CDK5/p35 (Q00535 whole entry): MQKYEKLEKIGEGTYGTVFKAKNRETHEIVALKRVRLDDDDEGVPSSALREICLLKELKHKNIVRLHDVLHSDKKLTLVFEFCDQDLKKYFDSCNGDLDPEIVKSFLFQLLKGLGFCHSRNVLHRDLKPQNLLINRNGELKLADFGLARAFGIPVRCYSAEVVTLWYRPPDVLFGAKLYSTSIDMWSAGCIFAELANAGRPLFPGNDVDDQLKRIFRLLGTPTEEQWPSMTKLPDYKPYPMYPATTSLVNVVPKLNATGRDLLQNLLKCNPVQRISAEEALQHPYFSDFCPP
Sequence of CDK5/p35 (Q15078 whole entry partner): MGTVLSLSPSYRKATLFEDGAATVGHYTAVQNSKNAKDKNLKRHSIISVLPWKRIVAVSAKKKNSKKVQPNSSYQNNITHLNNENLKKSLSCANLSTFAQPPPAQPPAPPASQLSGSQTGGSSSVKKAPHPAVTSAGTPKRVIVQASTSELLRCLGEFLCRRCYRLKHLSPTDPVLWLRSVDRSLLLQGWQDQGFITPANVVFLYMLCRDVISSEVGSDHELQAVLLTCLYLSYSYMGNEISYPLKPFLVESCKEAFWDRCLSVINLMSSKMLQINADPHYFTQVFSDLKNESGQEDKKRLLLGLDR

COc1cc(-c2cc(-c3ccc(N4CCNCC4)cc3)cnc2N)cc(OC)c1OC [Compound 15, 5-(4-(piperazin-1-yl)phenyl)-3-(3,4,5-trimethoxyphenyl)pyridin-2-amine]
inhibition at 0.1 µM (CDK5/p35): 0%
inhibition at 1 µM (CDK5/p35): 0%
inhibition at 0.1 µM (ROCK2): -1%
inhibition at 1 µM (ROCK2): 2%
inhibition at 0.1 µM (MARK4): 5%
inhibition at 1 µM (MARK4): 40%
inhibition at 0.1 µM (MAP4K4; [1]): 77%
inhibition at 1 µM (MAP4K4; [1]): 90%
inhibition at 0.1 µM (MAPKAPK2): 0%
inhibition at 1 µM (MAPKAPK2): -4%
inhibition at 0.1 µM (TNK2): 6%
inhibition at 1 µM (TNK2): 44%
inhibition at 0.1 µM (EPH-A2): -3%
inhibition at 1 µM (EPH-A2): 4%
IC50 (caALK2; read-out: Cell Based Assay caALK2 IC50): 5 nM
inhibition at 0.1 µM (AKT2): 2%
inhibition at 1 µM (AKT2): 2%
inhibition at 0.1 µM (ZAP70): 1%
inhibition at 1 µM (ZAP70): 1%

COc1cc(-c2cc(-c3ccc(N4CCNCC4)cc3)cnc2C)cc(OC)c1OC [Compound 10, 1-(4-(6-methyl-5-(3,4,5-trimethoxyphenyl)pyridin-3-yl)phenyl)piperazine]
inhibition at 0.1 µM (CDK5/p35): 2%
inhibition at 1 µM (CDK5/p35): 2%
inhibition at 0.1 µM (ROCK2): 4%
inhibition at 1 µM (ROCK2): 3%
inhibition at 0.1 µM (MARK4): 1%
inhibition at 1 µM (MARK4): 2%
inhibition at 0.1 µM (MAP4K4; [2]): 34%
inhibition at 0.1 µM (MAP4K4; [1]): 34%
inhibition at 1 µM (MAP4K4; [2]): 92%
inhibition at 1 µM (MAP4K4; [1]): 92%
inhibition at 0.1 µM (MAPKAPK2): 4%
inhibition at 1 µM (MAPKAPK2): 4%
inhibition at 0.1 µM (TNK2): 6%
inhibition at 1 µM (TNK2): 35%
inhibition at 0.1 µM (EPH-A2): -2%
inhibition at 1 µM (EPH-A2): 1%
potency (caALK2; comparison across multiple assays (Tables 6 and 7)): reduction in potency
inhibition at 0.1 µM (AKT2): -1%
inhibition at 1 µM (AKT2): -1%
inhibition at 0.1 µM (ZAP70): 4%
inhibition at 1 µM (ZAP70): 5%
